Values quoted from earlier work, collected in US11191734B2, “Ketamine transdermal delivery system” (SHENOX PHARMACEUTICALS, LLC, priority 2015, dated 2021).

Columns and labels:
[1] = in vivo
[2] = not given; remark: listed apart in the source
NMDA receptor = settings: in vitro
[3] = three-compartment model, 70-kg human

CNC1(c2ccccc2Cl)CCCCC1=O (racemic) [ketamine]
onset of antidepressant effect after administration [1]: ≤ 2 h
absolute oral bioavailability (in humans): 10-20%
half-life (in vivo): about 2 hours
systemic (primarily hepatic) clearance (in vivo): about 19 ml/min·kg
V1 [3]: 133 L
clearance [3]: 79.8 L/h
micro constant k12 [3]: 0.174 h⁻¹
micro constant k13 [3]: 1.18 h⁻¹
micro constant k21 [3]: 0.124 h⁻¹
micro constant k31 [3]: 1.59 h⁻¹

CN[C@@]1(c2ccccc2Cl)CCCCC1=O [R-ketamine]
antidepressant effectiveness ([2]; animal model studies): more effective as an antidepressant than S-ketamine
psychotomimetic side effects and abuse liability ([2]; in vivo): free of psychotomimetic side effects and abuse liability

CN[C@]1(c2ccccc2Cl)CCCCC1=O [S-ketamine]
affinity on NMDA receptor binding relative to R-ketamine (NMDA receptor): ~4 fold
